In PubChem BioAssay (NCI):
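96-well plates; 48 h exposure; 5 concentrations. Endpoints by linear interpolation between flanking doses. Not reached: highest tested concentration assigned. Definition used: TGI = concentration required for complete inhibition of growth.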

Tests used:
Test in all cases: NCI tumour cell line growth inhibition, 48 h
[1] = system: A549 NSCLC
[2] = system: CAKI-1 renal
[3] = system: HT29 colon
[4] = system: MCF7 breast
[5] = system: MDA-MB-231 breast
[6] = system: NCI-H23 lung
[7] = system: NCI-H522 lung
[8] = system: NCI/ADR-RES ovarian
[9] = system: SK-MEL-28 melanoma
[10] = system: SN12C renal

Row | SMILES | TGI [1] | TGI [2] | TGI [3] | TGI [4] | TGI [5] | TGI [6] | TGI [7] | TGI [8] | TGI [9] | TGI [10]
1 | CN(C)c1ccccc1CN1CCCN(Cc2ccccc2N(C)C)C1c1ccncc1 | 40.7 µM | 34.6 µM | 26.5 µM | 29.6 µM | 51.5 µM | 43 µM | 32.5 µM | 58 µM | 23.7 µM | 62.2 µM
2 | COC(=O)C1CCC(=O)N1C(c1ccc(OC)cc1)c1ccc(OC)cc1 (stereo not given) | > 100 µM | > 100 µM | > 100 µM | > 100 µM | > 100 µM | > 100 µM | > 100 µM | > 100 µM | > 100 µM | > 100 µM
3 | CCOC(=O)C1OC(C2(C)OC3(OC4(C=CC3O)OC(C(C)C(=O)C(C)C(O)C(C)CC(C)c3c(Cl)cc(C)c(O)c3C(=O)O)C(C)CC4C)C(C)C2OC)CC1O (stereo not given) | 7.27 µM | 10.4 µM | 3.57 µM | 23.1 µM | 2.96 µM | 5.77 µM | 0.434 µM | 20.4 µM | 1.02 µM | 4.84 µM
4 | Cc1cc(Cc2c(F)c(F)c(C(c3cc(C)no3)c3c(F)c(F)c(F)c(F)c3F)c(F)c2F)on1 (stereo not given) | > 100 µM | > 100 µM | > 100 µM | > 100 µM | > 100 µM | > 100 µM | > 100 µM | > 100 µM | > 100 µM | > 100 µM
5 | CC1(CCCO)CCCCCCCCCC(C)(CCCO)C1=O (stereo not given) | > 100 µM | > 100 µM | > 100 µM | > 100 µM | > 100 µM | > 100 µM | > 100 µM | > 100 µM | > 100 µM | > 100 µM
6 | CCOc1ccc(/C=N/[N+](C)(C)C)cc1OCC | > 10 µM | > 10 µM | > 10 µM | > 10 µM | > 10 µM | > 10 µM | > 10 µM | > 10 µM | > 10 µM | > 10 µM
7 | CSc1c(C#N)c(N)nc2c(N=Nc3ccc(Cl)cc3)c(N)nn12 | > 73.8 µM | 34.5 µM | 8.38 µM | 4.71 µM | 4.85 µM | 7.25 µM | 22.5 µM | 39 µM | 7.57 µM | 8.1 µM
8 | NC1CC2NC3CCCCC3NC2CC1N (stereo not given) | > 100 µM | > 100 µM | > 100 µM | > 100 µM | > 100 µM | > 100 µM | 39.9 µM | > 100 µM | > 100 µM | > 100 µM
9 | C/C(=C/C(=O)Nn1c(Cc2ccccc2)n[nH]c1=O)C(=O)O | > 100 µM | > 100 µM | > 100 µM | > 100 µM | > 100 µM | > 100 µM | > 100 µM | > 100 µM | > 100 µM | > 100 µM
10 | N=c1c2c(-c3ccccc3)c[nH]c2ncn1N | > 100 µM | > 100 µM | > 100 µM | > 100 µM | > 100 µM | > 100 µM | > 100 µM | > 100 µM | > 100 µM | > 100 µM
11 | CCSc1cc(=O)n(C)c(=O)n1C | > 100 µM | > 100 µM | > 100 µM | > 100 µM | > 100 µM | > 100 µM | > 100 µM | > 100 µM | > 100 µM | > 100 µM
12 | COc1ccc(C(SCCO)(c2ccccc2)c2ccccc2)cc1 | 24.6 µM | 32.2 µM | 39.2 µM | 25 µM | 31 µM | 34 µM | 34.4 µM | 34.2 µM | 33.6 µM | 28.4 µM
13 | Nc1nc(N)c2ncn(Cc3ccccc3CCl)c2n1 | > 100 µM | > 100 µM | > 100 µM | > 100 µM | > 100 µM | > 100 µM | > 100 µM | > 100 µM | > 100 µM | > 100 µM
14 | Fc1ccc2nc3n(c2c1)C(c1c(Cl)cccc1Cl)SC3 (stereo not given) | > 100 µM | > 100 µM | > 100 µM | > 100 µM | > 100 µM | > 100 µM | > 100 µM | > 100 µM | > 100 µM | > 100 µM
15 | O=C1CCC(=O)N1n1c(Cc2ccc(Cl)cc2)n[nH]c1=O | > 100 µM | > 100 µM | > 100 µM | > 100 µM | > 100 µM | > 100 µM | > 100 µM | > 100 µM | > 100 µM | > 100 µM
16 | CC(C)(C)c1cc(C2=NN(c3ccccc3)C(c3ccccc3)C2)cc(C(C)(C)C)c1O (stereo not given) | > 100 µM | > 100 µM | > 100 µM | > 100 µM | > 100 µM | > 100 µM | > 100 µM | > 100 µM | > 100 µM | > 100 µM
17 | COC1(OC)CC(CO)(CNc2cc(Cl)nc(N)n2)C1 | > 100 µM | > 100 µM | > 100 µM | > 100 µM | > 100 µM | > 100 µM | > 100 µM | > 100 µM | > 100 µM | > 100 µM
18 | C#CC1(O)C(COP(=O)(O)OCC2OC(n3ccc(NCCCCCCCCCCCCCCCCCC)nc3=O)C(O)C2O)OC(n2ccc(N)nc2=O)C1O (stereo not given) | > 55.9 µM | 6.77 µM | > 95 µM | > 59.7 µM | 34.4 µM | 55.8 µM | 0.773 µM | 37.3 µM | 31.6 µM | 39.9 µM
